Values joined by “and” are separate entries in the source; they are usually repeats but may differ in a detail not shown here. Equal values may be shown once.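 48-hour exposure; five concentrations; linearly interpolated endpoints. GI50 marks 50% less growth. TGI marks complete inhibition of growth.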
Assays:
Assay in all cases: DTP human tumour cell line panel, 48 h
[1] = tested on: MOLT-4 leukemia
[2] = tested on: OVCAR-8 ovarian
[3] = tested on: A498 renal
[4] = tested on: SW-620 colon
[5] = tested on: OVCAR-4 ovarian
[6] = tested on: OVCAR-3 ovarian
[7] = tested on: RXF 393 renal
[8] = tested on: MALME-3M melanoma
[9] = tested on: HCT-15 colon
[10] = tested on: K-562 leukemia

Compound	GI50 [1]	TGI [1]	GI50 [2]	TGI [2]	GI50 [3]	TGI [3]	GI50 [4]	TGI [4]	GI50 [5]	TGI [5]	GI50 [6]	TGI [6]	GI50 [7]	TGI [7]	GI50 [8]	TGI [8]	GI50 [9]	TGI [9]	TGI [10]	GI50 [10]
CC12CCC3C(CCC4Cc5[nH]c6ccccc6c5CC43C)C1CCC2O (configuration not stated)	2.55 µM	> 100 µM	4.1 µM	> 100 µM	0.696 µM	6.44 µM	0.497 µM	> 100 µM	1.35 µM	> 100 µM	0.26 µM	0.719 µM	0.738 µM	3.31 µM	2.92 µM	> 100 µM	0.695 µM	> 100 µM		
CC1CC(C2=CC=CCS2)=Nc2ccccc2S1 (configuration not stated)		> 100 µM		> 100 µM		> 100 µM		> 100 µM		> 100 µM		> 100 µM		> 100 µM		> 100 µM		> 100 µM	> 100 µM	
CC(C)/C=C1\CCC(CN2CCCC2)C1=O (configuration not stated)		14.9 µM		16.5 µM		> 59 µM		7.94 µM		32.5 µM		31.8 µM		29.7 µM		17.1 µM		18.3 µM	11.9 µM	
O=C[C@@H](CO)O[C@H](C=O)c1c[nH]c(=O)[nH]c1=O		605 µM		352 µM		744 µM		646 µM		375 µM		309 µM		163 µM		253 µM		327 µM	818 µM	
CCOC(=O)Nc1cc2nnc(-c3ccccc3)nc2c(N)n1				76.4 µM				42.2 µM		69.2 µM		48.8 µM		53.5 µM		87.7 µM		> 100 µM	> 100 µM	
Clc1ncnc(Cl)c1Cl		> 100 µM		> 100 µM				> 100 µM		> 100 µM		> 100 µM		> 100 µM		> 100 µM		> 100 µM	> 100 µM	
CCSCC1CC(O)(c2ccccc2)C(c2ccccc2)C(c2ccc(Cl)cc2)O1 (configuration not stated)	1.73 µM	9.82 µM	2.27 µM	5.37 µM	1.79 µM	3.41 µM	1.82 µM	4.39 µM	1.66 µM	4.35 µM	1.74 µM	4.2 µM	0.688 µM	2.06 µM	1.58 µM	3.18 µM	1.69 µM	4.5 µM	8.37 µM	1.89 µM
COc1c(C=O)c2c(c(OC)c1OC)-c1ccc(OC)c(=O)cc1[C@@H](NC(C)=O)CC2		> 17.8 µM		> 14.4 µM		14.8 µM		> 100 µM		> 100 µM		1.09 µM		> 56.3 µM		> 100 µM		> 100 µM	> 100 µM	
CC(C)(C)NNC(=O)/C(=C/c1ccc([N+](=O)[O-])cc1)NC(=O)c1ccccc1		> 100 µM		> 100 µM		> 100 µM				> 100 µM		> 100 µM		> 100 µM		> 100 µM		> 100 µM	> 100 µM	
COC(=O)C1=C(c2ccc(OC)c(OC)c2)OC(c2ccc(OC)c(OC)c2)C1 (configuration not stated)		47.5 µM		> 100 µM		46.9 µM		> 100 µM		> 100 µM		> 100 µM		69.9 µM		69.3 µM		> 100 µM	> 100 µM	
CCOc1ccccc1NC(=O)CC1C(=O)Nc2ccccc2S1=O (configuration not stated)		39.5 µM		> 100 µM		> 100 µM		> 100 µM		> 100 µM		> 100 µM		> 100 µM		> 100 µM		> 100 µM	> 100 µM	
COc1ccc(C(=O)c2cc(OC)c(OC)c(OC)c2)cc1		20.2 µM		31.7 µM				> 100 µM		> 100 µM		0.283 µM		> 100 µM		> 100 µM			> 100 µM	
Cc1c(N2CCCC2)cc2c(c1NC(=O)c1ccccc1Cl)C(C)(C)CC2(C)C				32.6 µM		29.1 µM		33.1 µM		33.3 µM		21.3 µM		27.5 µM		36.1 µM		28.3 µM	> 100 µM	
F	> 6870 µM	> 6870 µM	3250 µM	> 6870 µM	1620 µM	4390 µM			> 6870 µM	> 6870 µM	> 6870 µM	> 6870 µM	2360 µM	5200 µM	1920 µM	5060 µM	3800 µM	> 6870 µM	> 6870 µM	3630 µM
COc1cc2c(cc1O)CC[C@@H]1[C@@H]2CC[C@]2(C)[C@@H](NCCN(C)C)CC[C@@H]12	0.187 µM	0.695 µM			0.164 µM	0.636 µM	0.14 µM	0.556 µM	0.339 µM	0.943 µM	0.123 µM	0.475 µM	0.118 µM	0.48 µM	0.19 µM	0.669 µM	0.111 µM	0.454 µM	0.395 µM	0.0886 µM
O=C(Nc1ccc(Cl)cc1Cl)C1C(=O)N(c2ccc(Cl)cc2Cl)C(=O)/C1=N\Nc1ccc([N+](=O)[O-])cc1[N+](=O)[O-] (configuration not stated)		74.8 µM		> 100 µM		> 100 µM		> 100 µM		> 100 µM		> 100 µM				> 100 µM		> 100 µM	> 100 µM	
O=C(Nc1c(O)[nH]c(=S)[nH]c1=O)c1ccccc1F		> 100 µM		> 100 µM		> 100 µM		> 100 µM		> 100 µM		> 100 µM				> 100 µM		> 100 µM	> 100 µM	
COc1ccc(OC)c(/C=N/NC(=O)Cc2csc3nc(-c4ccc(Br)cc4)cn23)c1	3.47 µM	8.08 µM	11.6 µM	38.2 µM			6.44 µM	49.1 µM	28.4 µM	> 100 µM	15.9 µM	59 µM	19 µM	67.4 µM			7.42 µM	65.1 µM	6.94 µM	2.94 µM
CCCCCCCCCCCCNC(C)=O				44.5 µM		68 µM		30.9 µM				40.1 µM		43.4 µM		34.5 µM		33.1 µM		
CN(C)c1ccc2c(=O)c3ccccc3oc2n1		> 100 µM		> 100 µM				> 100 µM		> 100 µM		> 100 µM		> 100 µM		> 100 µM		> 100 µM	> 100 µM	

Compound	GI50 [1]	TGI [1]	GI50 [2]	TGI [2]	GI50 [3]	TGI [3]	GI50 [4]	TGI [4]	GI50 [5]	TGI [5]	GI50 [6]	TGI [6]	GI50 [7]	TGI [7]	GI50 [8]	TGI [8]	GI50 [9]	TGI [9]	TGI [10]	GI50 [10]
NC(=O)NNCc1ccccc1		> 100 µM		> 100 µM		> 100 µM		> 100 µM		> 100 µM		> 100 µM		> 100 µM				> 100 µM	> 100 µM	
OC(c1cccc(-n2ccc(C(F)(F)F)n2)c1)c1cnccc1NC1CCCCCC1 (configuration not stated)	2.16 µM	4.83 µM	1.92 µM	3.93 µM			1.67 µM	3.31 µM	1.64 µM	3.07 µM	1.76 µM	3.22 µM	1.36 µM	2.74 µM	1.71 µM	3.23 µM	1.6 µM	3.1 µM	4.96 µM	1.37 µM
Cc1ccc(S(=O)(=O)OC2CCN(C)CC2)cc1		36.6 µM		> 100 µM				42 µM		> 100 µM		> 100 µM		> 100 µM		37.9 µM		> 100 µM	40.4 µM	
CCN(CC)CCOCC[C@H]1CC[C@H]2[C@@H]3[C@H](C)Cc4cc(OS(N)(=O)=O)ccc4[C@H]3CC[C@]12C	1.53 µM	4.31 µM	2.05 µM	5.67 µM	1.54 µM	3.96 µM	1.38 µM	2.75 µM	0.806 µM	2.29 µM	1.21 µM	2.46 µM	1.67 µM	4.12 µM			1.66 µM	4.72 µM	2.26 µM	0.547 µM
Cc1ccc(NC(=O)c2cc3cc(N=Nc4ccc(Br)cc4)ccc3oc2=O)cc1		> 100 µM				> 100 µM		> 100 µM		> 100 µM				> 100 µM		> 100 µM		> 100 µM		
N#Cc1ccccc1NC(=O)/C(=N\N)C(C(=O)c1ccncc1)C1OC(=O)c2ccccc21 (configuration not stated)		> 100 µM		> 100 µM				> 100 µM		> 100 µM		> 100 µM				> 100 µM		> 100 µM	> 100 µM	
COc1cc(C2c3[nH]c4ccccc4c3C[C@H]3COC(=O)N23)cc(OC)c1OC (some centres not stated)	< 0.01 µM		< 0.01 µM	1.71 µM and 0.389 µM	< 0.01 µM		< 0.01 µM	> 100 µM	0.507 µM	> 100 µM	< 0.01 µM				< 0.01 µM	> 100 µM	< 0.01 µM	6.72 µM and 1.39 µM	1.13 µM	< 0.01 µM
O=[N+]([O-])c1ccc(S(=O)(=O)Cc2ccccc2)c([N+](=O)[O-])c1				3.7 µM		31.1 µM		20.1 µM		5.77 µM		2.57 µM		3.4 µM		6.2 µM		3.94 µM	> 100 µM	
COc1cccc(C2c3cc4c(cc3OC(C)(N3CCCC3)C2C)OCO4)c1OC (configuration not stated)		27.4 µM		98.1 µM				> 100 µM		46.1 µM		25.4 µM		86.7 µM		66.5 µM		30.7 µM	53.1 µM	
Cc1nc(-c2cccc(Nc3nc(-c4ccc(Cl)cc4)cs3)c2)cs1	30.9 µM	> 50 µM	10.1 µM	23.2 µM	12.3 µM	20.9 µM	11.9 µM	27 µM			10.5 µM	23.1 µM	9.63 µM	19 µM			7.83 µM	18.6 µM	21.4 µM	8.06 µM
N=C(N)c1ccc(OCc2cccc(COc3ccc(C(=N)N)cc3)c2)cc1	16.3 µM	45.4 µM	11.3 µM	38.4 µM			5.64 µM	21.3 µM	14.1 µM	99.6 µM					1.77 µM	6.01 µM	17.8 µM	> 100 µM	19 µM	3.62 µM
Cc1ccc2c(c1)C(C)Cc1c(ncnc1-n1cnc3ccccc31)N2C (configuration not stated)	0.426 µM	15 µM	0.592 µM	32.7 µM	0.22 µM	17.1 µM	0.281 µM	17 µM	2.51 µM	22.5 µM	0.313 µM	10.8 µM					0.414 µM	12.7 µM	14.1 µM	0.0801 µM
Cc1ccccc1NC(=O)C(=O)C(C#N)c1ccc(Cl)cc1 (configuration not stated)		> 100 µM		> 100 µM		> 100 µM		31.2 µM				> 100 µM		> 100 µM		> 100 µM		37.1 µM	> 100 µM	
COc1ccccc1/C=C(\C#N)c1ccccc1		97.3 µM		> 100 µM		66.1 µM		> 100 µM		> 100 µM		51.2 µM		69.3 µM				67.4 µM	33.8 µM	
CN1N=CSC12C(=O)N(c1ccc(Cl)cc1)C(=O)N2c1ccc(Cl)cc1 (configuration not stated)		12.3 µM		> 100 µM		9.67 µM		> 100 µM		> 100 µM		4.54 µM		36.1 µM		> 100 µM			22.3 µM	
COc1ccccc1NC(=O)c1sc2nc3c(cc2c1N)C(=O)CCC3	> 100 µM	> 100 µM	3.97 µM	> 100 µM	1.84 µM	> 100 µM					25.3 µM	> 100 µM	1.83 µM	9.33 µM	1.75 µM	> 100 µM			> 100 µM	1.53 µM
O=C1C(Cl)=C(Nc2cccc(Cl)c2)C(=O)N1Cc1ccccc1	3.38 µM	> 100 µM	4.63 µM	32 µM	10.6 µM	22.7 µM			22.3 µM	67.4 µM	5.02 µM	17.7 µM	1.36 µM	7 µM	5.12 µM	20.1 µM	10.8 µM	27.4 µM	> 100 µM	2.9 µM
O=C(Nc1ccccc1-c1n[nH]c(=S)[nH]c1=O)C(F)(F)F		> 100 µM		> 100 µM				> 100 µM		> 100 µM		> 100 µM		> 100 µM		> 100 µM		> 100 µM	> 100 µM	
COc1ccc(C2CC(=O)c3c(O)cc(O)cc3O2)cc1O (configuration not stated)		> 100 µM		> 100 µM		> 100 µM		> 100 µM		> 100 µM		> 100 µM				> 100 µM		> 100 µM	> 100 µM	
